# Laboratory results as given in ChEMBL document CHEMBL1201862, “PubChem BioAssay data set” (2004).
#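 48-hour exposure; five concentrations; linearly interpolated endpoints. GI50 = concentration required for 50% inhibition of growth.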 Calls of active or inactive are those of the source. No stated cut-off is given here; in the data, active = GI50 up to about 1.1 µM and inactive = higher.
# Assays:
# Assay in all cases: DTP human tumour cell line panel, 48 h
# [1] = system: NCI-H522
# [2] = system: SK-MEL-28
# [3] = system: OVCAR-8
# [4] = system: U-251
# [5] = system: NCI-H226
# [6] = system: SNB-19
# [7] = system: SF-539
# [8] = system: T47D
# [9] = system: HCC 2998
# [10] = system: OVCAR-3
# [11] = system: MCF7
# [12] = system: SF-268
# [13] = system: PC-3
# [14] = system: SR
# [15] = system: TK-10
# [16] = system: BT-549
# [17] = system: SW-620
# [18] = system: M14
# [19] = system: IGROV-1
# [20] = system: RXF 393
SMILES,GI50 [1],GI50 [2],GI50 [3],GI50 [4],GI50 [5],GI50 [6],GI50 [7],GI50 [8],GI50 [9],GI50 [10],GI50 [11],GI50 [12],GI50 [13],GI50 [14],GI50 [15],GI50 [16],GI50 [17],GI50 [18],GI50 [19],GI50 [20]
O=S(=O)(O)CCCc1cccc2ccccc12,> 100 µM (inactive),> 100 µM (inactive),> 100 µM (inactive),> 100 µM (inactive),> 100 µM (inactive),> 100 µM (inactive),> 100 µM (inactive),> 100 µM (inactive),> 100 µM (inactive),> 100 µM (inactive),> 100 µM (inactive),> 100 µM (inactive),> 100 µM (inactive),> 100 µM (inactive),> 100 µM (inactive),> 100 µM (inactive),> 100 µM (inactive),> 100 µM (inactive),> 100 µM (inactive),> 100 µM (inactive)
CN1CCN(CCCCN2c3ccccc3Sc3cc(N=[N+]=[N-])ccc32)CC1,1.7 µM (inactive),1.82 µM (inactive),1.82 µM (inactive),2.73 µM (inactive),5.93 µM (inactive),3.62 µM (inactive),3.31 µM (inactive),9.23 µM (inactive),1.39 µM (inactive),2.55 µM (inactive),1.99 µM (inactive),6.19 µM (inactive),1.82 µM (inactive),5.5 µM (inactive),1.91 µM (inactive),7.76 µM (inactive),1.98 µM (inactive),1.72 µM (inactive),1.93 µM (inactive),2.7 µM (inactive)
NNC(=O)CSc1nc2ccccc2c(=O)n1N,58.7 µM (inactive),> 100 µM (inactive),31.9 µM (inactive),19.1 µM (inactive),> 100 µM (inactive),14.9 µM (inactive),31 µM (inactive),> 100 µM (inactive),> 100 µM (inactive),> 100 µM (inactive),91.8 µM (inactive),39.9 µM (inactive),> 100 µM (inactive),> 100 µM (inactive),16.3 µM (inactive),42.1 µM (inactive),> 100 µM (inactive),> 100 µM (inactive),> 100 µM (inactive),31.7 µM (inactive)
CC1=Cc2ccc(C)cc2C(=O)C1=O,1.64 µM (inactive),21.6 µM (inactive),5.3 µM (inactive),20.4 µM (inactive),36.1 µM (inactive),22.2 µM (inactive),6.28 µM (inactive),1.82 µM (inactive),14.9 µM (inactive),4.79 µM (inactive),6.97 µM (inactive),8.67 µM (inactive),15.8 µM (inactive),1.58 µM (inactive),1.83 µM (inactive),21.2 µM (inactive),2.81 µM (inactive),4.81 µM (inactive),14.4 µM (inactive),1.83 µM (inactive)
Cc1c2cccc(Sc3ccccc3)c2c2c3c(cccc13)[S+](c1ccccc1)C2 (stereo not given),0.684 µM (active),2.58 µM (inactive),2.67 µM (inactive),1.5 µM (inactive),2.33 µM (inactive),1.73 µM (inactive),2.63 µM (inactive),0.526 µM (active),1.66 µM (inactive),0.659 µM (active),1.33 µM (inactive),3.13 µM (inactive),2.06 µM (inactive),0.838 µM (active),2.67 µM (inactive),2.14 µM (inactive),3.26 µM (inactive),2.08 µM (inactive),2.34 µM (inactive),3.86 µM (inactive)
O=C1C2C3C4C1C1C2[C@H](OCc2ccccc2)C3C1[C@H]4OCc1ccccc1 (stereo not given in full),11.2 µM (inactive),40.2 µM (inactive),> 100 µM (inactive),77.3 µM (inactive),76.9 µM (inactive),67.9 µM (inactive),75.2 µM (inactive),34.4 µM (inactive),31.3 µM (inactive),60.5 µM (inactive),> 100 µM (inactive),60.5 µM (inactive),36.1 µM (inactive),19.1 µM (inactive),> 100 µM (inactive),> 100 µM (inactive),46 µM (inactive),51.8 µM (inactive),> 100 µM (inactive),31.8 µM (inactive)
CC(C)(C)c1cc(C(=O)/C=C/c2cc[nH]n2)cc(C(C)(C)C)c1O,1.43 µM (inactive),6.11 µM (inactive),2.39 µM (inactive),1.73 µM (inactive),5.73 µM (inactive),3.87 µM (inactive),3.85 µM (inactive),1.11 µM (active),1.88 µM (inactive),2.75 µM (inactive),1.36 µM (inactive),2.4 µM (inactive),2.08 µM (inactive),1.19 µM (inactive),1.54 µM (inactive),4.83 µM (inactive),2.33 µM (inactive),1.82 µM (inactive),1.93 µM (inactive),1.69 µM (inactive)
CC(C)OC(=O)c1ccc(NCC2=CC(=O)C=CC2=O)cc1Cl,1.02 µM (active),17.2 µM (inactive),5.68 µM (inactive),16.9 µM (inactive),25.7 µM (inactive),6.11 µM (inactive),12 µM (inactive),2.3 µM (inactive),15.2 µM (inactive),10.4 µM (inactive),14.9 µM (inactive),12.1 µM (inactive),8.3 µM (inactive),1.58 µM (inactive),15.7 µM (inactive),2.62 µM (inactive),11.5 µM (inactive),27.8 µM (inactive),11.5 µM (inactive),17.1 µM (inactive)
[N-]=[N+]=NCC(=O)c1cnc(O)nc1O,> 100 µM (inactive),> 100 µM (inactive),> 100 µM (inactive),> 100 µM (inactive),> 100 µM (inactive),> 100 µM (inactive),> 100 µM (inactive),> 100 µM (inactive),> 100 µM (inactive),> 100 µM (inactive),> 100 µM (inactive),> 100 µM (inactive),> 100 µM (inactive),> 100 µM (inactive),> 100 µM (inactive),> 100 µM (inactive),> 100 µM (inactive),> 100 µM (inactive),> 100 µM (inactive),> 100 µM (inactive)
Cc1cc(C2CC(O)C(CO)O2)c(F)cc1F (stereo not given),> 100 µM (inactive),> 100 µM (inactive),> 100 µM (inactive),> 100 µM (inactive),> 100 µM (inactive),> 100 µM (inactive),> 100 µM (inactive),> 100 µM (inactive),> 100 µM (inactive),> 100 µM (inactive),> 100 µM (inactive),> 100 µM (inactive),> 100 µM (inactive),> 100 µM (inactive),> 100 µM (inactive),> 100 µM (inactive),> 100 µM (inactive),> 100 µM (inactive),> 100 µM (inactive),> 100 µM (inactive)
O=C1/C(=C/c2ccccc2)CCc2ccc(Cl)nc21,2.76 µM (inactive),14.7 µM (inactive),7.8 µM (inactive),3.11 µM (inactive),20.6 µM (inactive),15 µM (inactive),3.61 µM (inactive),4.85 µM (inactive),17 µM (inactive),21.8 µM (inactive),1.79 µM (inactive),12.1 µM (inactive),11.7 µM (inactive),2.8 µM (inactive),13.9 µM (inactive),13.9 µM (inactive),3.98 µM (inactive),8.04 µM (inactive),4.5 µM (inactive),8.2 µM (inactive)
COCN1C(=O)[C@@H]2CCCN2C(=O)c2ccc([N+](=O)[O-])cc21,> 100 µM (inactive),> 100 µM (inactive),> 100 µM (inactive),> 100 µM (inactive),> 100 µM (inactive),> 100 µM (inactive),> 100 µM (inactive),> 100 µM (inactive),> 100 µM (inactive),> 100 µM (inactive),> 100 µM (inactive),> 100 µM (inactive),> 100 µM (inactive),48.4 µM (inactive),> 100 µM (inactive),> 100 µM (inactive),> 100 µM (inactive),> 100 µM (inactive),> 100 µM (inactive),> 100 µM (inactive)
CC(C)NCCCNc1c2ccccc2nc2cccc([N+](=O)[O-])c12,0.00161 µM (active),0.144 µM (active),0.00566 µM (active),0.0143 µM (active),0.0219 µM (active),0.0499 µM (active),0.0484 µM (active),0.00851 µM (active),0.00406 µM (active),0.00834 µM (active),< 0.001 µM (active),0.00757 µM (active),0.00745 µM (active),< 0.001 µM (active),0.0373 µM (active),0.0421 µM (active),0.00514 µM (active),0.0113 µM (active),< 0.001 µM (active),0.00427 µM (active)
CCCCCCCCCCCCCCCCCCOCC(O)COP(=O)(O)OCC1OC(n2cc(F)c(=O)[nH]c2=O)CC1O (stereo not given),11.9 µM (inactive),14.1 µM (inactive),1.64 µM (inactive),1.75 µM (inactive),> 35.6 µM (inactive),10.3 µM (inactive),0.0721 µM (active),2.58 µM (inactive),0.0467 µM (active),13.7 µM (inactive),0.492 µM (active),0.236 µM (active),3.07 µM (inactive),0.533 µM (active),8.93 µM (inactive),13.7 µM (inactive),13.7 µM (inactive),2.96 µM (inactive),11.4 µM (inactive),11.9 µM (inactive)
